Measured values: ChEMBL document CHEMBL5728685, “Macrocycle containing aminopyrazole and pyrimidine and pharmaceutical composition and use thereof” (2021)

Biological target: High affinity nerve growth factor receptor (Homo sapiens, UniProt P04629)
Test: Inhibition Assay: A testing platform for TrkAWT kinase activity was established based on Homogeneous Time-Resolved Fluorescence (HTRF) assay, and the activities of the compounds were tested using the platform. The compounds were subjected to five-fold gradient dilution for eight times with 100% DMSO with a starting concentration of 200 μM (9 concentrations in total). 4 μL of diluted sample for …

Chain of High affinity nerve growth factor receptor (P04629 whole entry): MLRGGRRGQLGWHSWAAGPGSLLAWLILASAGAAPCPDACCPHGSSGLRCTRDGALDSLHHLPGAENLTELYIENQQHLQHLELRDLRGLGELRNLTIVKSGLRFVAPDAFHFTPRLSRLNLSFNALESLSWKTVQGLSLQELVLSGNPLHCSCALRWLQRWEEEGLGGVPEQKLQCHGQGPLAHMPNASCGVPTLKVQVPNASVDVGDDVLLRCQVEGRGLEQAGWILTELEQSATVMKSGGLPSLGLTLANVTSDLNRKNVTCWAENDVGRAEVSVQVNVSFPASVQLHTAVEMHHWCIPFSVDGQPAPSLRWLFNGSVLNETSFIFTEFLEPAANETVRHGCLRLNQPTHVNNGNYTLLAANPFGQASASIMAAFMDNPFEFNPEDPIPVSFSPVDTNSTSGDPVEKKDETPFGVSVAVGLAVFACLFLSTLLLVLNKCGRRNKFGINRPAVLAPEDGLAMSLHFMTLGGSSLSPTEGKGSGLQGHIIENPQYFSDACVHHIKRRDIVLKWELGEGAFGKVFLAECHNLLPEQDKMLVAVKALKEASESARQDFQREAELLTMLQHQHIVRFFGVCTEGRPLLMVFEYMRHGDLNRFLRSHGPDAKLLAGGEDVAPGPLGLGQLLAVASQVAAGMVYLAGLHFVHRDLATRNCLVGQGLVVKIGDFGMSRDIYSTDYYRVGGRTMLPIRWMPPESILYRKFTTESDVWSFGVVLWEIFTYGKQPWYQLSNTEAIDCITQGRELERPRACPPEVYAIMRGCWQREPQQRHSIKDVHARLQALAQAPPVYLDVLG

Compound | IC50 [nM]
Nc1nn2ccc3nc2c1C(=O)NCCCn1cc(F)cc(c1=O)[C@H]1C[C@H](F)CN31 | 0.23
C[C@@H]1CCc2ncc(F)cc2[C@H]2C[C@H](F)CN2c2ccn3nc(N)c(c3n2)C(=O)N1 | 0.23
Nc1nn2ccc3nc2c1C(=O)NCCOc1ncc(F)cc1C1CCCN31 (stereo not drawn) | 0.8
